Laboratory results from patent US20260108572A1, “ALZHEIMER-TYPE DEMENTIA SUPPRESSANT, AND METHOD FOR PRODUCING SAME” (Sakamoto Yakusouen, LLC, priority 2022, published 2026).

Experiments:
[1] = target: T1, Aβ derived from human (Human, 1-42) (Homo sapiens, UniProt P05067); experiment: Aβ accumulation inhibitory activity using Thioflavin-T; assay type: biochemical; details: pure compounds, similarly to Example 5(1); Aβ 25 μM, 24 hours
T1 construct: Aβ derived from human (“Human, 1-42” manufactured by Peptide Institute); purchased Peptide Institute
Experimental: The Aβ accumulation inhibitory activities of each fraction were determined using Thioflavin-T in the following condition. Aβ derived from human (“Human, 1-42” manufactured by Peptide Institute) was dissolved in 0.1% ammonia water in a concentration of 250 μM. Each of the fraction samples was added to a phosphate buffer (0.05 M sodium phosphate+0.1 M sodium chloride, pH7.4) (hereinafter abbreviated as “PBS”) in the final concentrations of 0.01 g/L, 0.05 g/L and 0.1 g/L. The Aβ solution was added thereto in the final concentration of 25 μM for the reaction at 37° C. A part of the reaction mixture was collected 0, 4, 8 and 24 hours after the start of the reaction, and 2.5 μL of the collected reaction mixture was added to each well of a 96 well plate for fluorescence measurement (“Nunc FluoroNunc plate” manufactured by Thermo Fisher Science). Then, Thioflavin-T solution was dissolved in 50 mM glycine-sodium hydroxide buffer (pH 8.5), and the solution (250 μL) was added to each well. The fluorescence intensity emitted when the B sheet of the Aβ fiber was labeled with Thioflavin-T was measured. The fluorescence intensity was measured using a microplate reader (“Wallac 1420 ARVO MX” manufactured by Perkin Elmer) in the condition of a wavelength of Excitation: 420 nm and Emission: 485 nm.

[2] = target: T2, human islet amyloid polypeptide (hIAPP) (Homo sapiens, UniProt P10997); experiment: hIAPP accumulation inhibitory activity using Thioflavin-T; assay type: biochemical; details: compounds at 1, 10, 100 μM in PBS pH7.4
T2 construct: hIAPP manufactured by Karebay Biochem was used in place of Aβ; purchased Karebay Biochem
T2 sequence (P10997 34-70 limits assumed): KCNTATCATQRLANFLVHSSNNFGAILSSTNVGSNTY

[3] = tested on: senescence-accelerated model mouse SAM-P8; experiment: Genome expression (RNA sequencing, PCA) in the whole brain of senescence-accelerated model mice after oral administration; assay type: in vivo; details: oral 7 days: donepezil 5 mg/kg, acteoside 100 mg/kg, SSa extract powder 500 mg/kg, brain after 30 days
Experimental: Seven-week-old male normal aged mouse SAM-R and male senescence-accelerated model mouse SAM-P8 that were respectively obtained from Japan SLC were arbitrarily divided into two groups of 10 mice each and acclimatized for 1 week. Then, 500 mg/kg of SSa extract powder was orally administered to SAM-R SSa extract powder-administered group and SAM-P8 SSa extract powder-administered group for 7 days. Each group of mice other than the above groups was given normal feed and water freely. Next, after the mice were reared for 30 days, the mice were humanely killed by anesthesia. The whole brain was taken out and preserved at −80° C. by the genome analysis.
Next, chloroform (0.2 mL) was added thereto, and the mixture was stirred well for 15 seconds and then stood still for 2 to 3 minutes. […]
The specific mRNA was concentrated from the obtained total RNA using an RNA sample preparation kit (“TruSeq Standard mRNA Library Prep kit” manufactured by Illumina). […] Then, the sequences of the cDNA library were determined using a next-generation DNA sequencer (“NoVaSeq6000” manufactured by Illumina) in the conditions of 100 bp, Paired-end and 40,000,000 read per 1 sample.
STAR>cufflinks>cuffdif analysis was carried out to compare the analysis results. GRCm38.92 was used as a mouse genome database, and the gene expression amount in gene level and in exon level as the component element of the gene was analyzed. […]

T1 sequence (P05067 672-713 limits assumed): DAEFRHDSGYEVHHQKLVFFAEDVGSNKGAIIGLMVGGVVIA

| IC50 [1] [µM] | IC50 [2] [µM] | SMILES | Difference of expression pattern from the control group on PC1 axis (PCA, gene and exon level) [3] |
| --- | --- | --- | --- |
| 2.8 | 4.2 | COc1cc2oc(-c3ccc(O)c(O)c3)cc(=O)c2c(O)c1O[C@@H]1O[C@H](CO)[C@@H](O)[C@H](O)[C@H]1O [Pedaliin, pedaliin] | – |
| 13 | 21 | C[C@@H]1O[C@@H](O[C@@H]2[C@@H](O)[C@H](OCCc3ccc(O)c(O)c3)O[C@H](CO)[C@H]2OC(=O)/C=C/c2ccc(O)c(O)c2)[C@H](O)[C@H](O)[C@H]1O [Acteoside, acteoside] | not a large difference |
